Experimental data published in patent US20240158446A1, “CYCLIC COMPOUND HAVING SELECTIVE INHIBITORY ACTION ON KRAS OVER HRAS AND NRAS” (CHUGAI SEIYAKU KABUSHIKI KAISHA, priority 2021, published 2024).
Read-outs that look alike come from different tables or passages of the source. *1 amine or outer side, *2 acyl side, *3 side chain or, on linkers, in order; H or OH if unused. Where a SMILES comes first, the peptide text is derived from it. Bridges are numbered along the chain shown (N, C = ends). [ ]: non-standard residue; d: D form. The star is where a group is joined. X22 = O=C([C@H](Cc1ccc(C(F)(F)F)cc1)N(CC1CCCC1)[*:1])[*:2]; hPhe(3-Cl-4-CF3) = N[C@@H](CCc1ccc(C(F)(F)F)c(Cl)c1)C(=O)O; X27 = O=C([C@H](Cc1ccc(C(F)(F)F)cc1)N(CC1CC1)[*:1])[*:2]; NPrPhe(4-CF3) = CCCN[C@@H](Cc1ccc(C(F)(F)F)cc1)C(=O)O; X15 = Cc1ccc(C[C@@H](C(=O)[*:2])N(CCC(C)C)[*:1])cc1; NMeGly(cPent) = CN[C@H](C(=O)O)C1CCCC1; Aze(3S-Me) = C[C@H]1CN[C@@H]1C(=O)O; NMeD = CN[C@@H](CC(=O)O)C(=O)O; NMeL = CN[C@@H](CC(C)C)C(=O)O; Morpholide = C1CN(*)CCO1; NMeA = CN[C@@H](C)C(=O)O; Ac5c = NC1(C(=O)O)CCCC1; Aze = O=C(O)[C@@H]1CCN1; Ac4c = NC1(C(=O)O)CCC1; Sar = CNCC(=O)O

How the values were obtained:
[1] = molecular target: GDP-bound KRAS wild-type protein (Homo sapiens, UniProt P01116); experiment: Binding to KRAS by surface plasmon resonance (SPR), Single Cycle Kinetics; settings: GDP-bound KRAS wild-type protein, read-out: KRAS KD
[2] = molecular target: GDP-bound NRAS wild-type protein (Homo sapiens, UniProt P01111); experiment: Binding to NRAS by surface plasmon resonance (SPR), Single Cycle Kinetics
[3] = molecular target: GDP-bound HRAS wild-type protein (Homo sapiens, UniProt P01112); experiment: Binding to HRAS by surface plasmon resonance (SPR), Single Cycle Kinetics; settings: for HRAS/KRAS (ratio of KD value with respect to GDP-bound HRAS wild-type protein to KD value with respect to KRAS): SPR KD ratio HRAS/KRAS, class symbols
[4] = SPR Single Cycle Kinetics, 1:1 binding model
[5] = SPR, GDP-bound NRAS wild-type protein vs GDP-bound KRAS wild-type protein
[6] = SPR, GDP-bound HRAS wild-type protein vs GDP-bound KRAS wild-type protein
[7] = SPR, Single Cycle Kinetics, 1:1 binding model
[8] = SPR, GDP-bound HRAS wild-type protein vs GDP-bound KRAS wild-type protein, KD ratio class

GDP-bound NRAS wild-type protein, sequence (P01111 whole entry): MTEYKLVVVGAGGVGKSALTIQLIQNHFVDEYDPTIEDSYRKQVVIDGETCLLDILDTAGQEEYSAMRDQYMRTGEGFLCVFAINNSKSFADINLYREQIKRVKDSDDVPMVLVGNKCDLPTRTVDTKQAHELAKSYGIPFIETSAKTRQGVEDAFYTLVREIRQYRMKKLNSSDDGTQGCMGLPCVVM
GDP-bound KRAS wild-type protein, sequence (P01116 whole entry): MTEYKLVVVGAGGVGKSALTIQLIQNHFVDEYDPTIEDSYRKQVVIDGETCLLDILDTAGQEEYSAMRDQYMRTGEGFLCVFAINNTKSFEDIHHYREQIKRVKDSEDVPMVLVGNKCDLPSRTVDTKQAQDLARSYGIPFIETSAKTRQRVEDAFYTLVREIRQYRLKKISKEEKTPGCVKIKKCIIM
GDP-bound HRAS wild-type protein, sequence (P01112 whole entry): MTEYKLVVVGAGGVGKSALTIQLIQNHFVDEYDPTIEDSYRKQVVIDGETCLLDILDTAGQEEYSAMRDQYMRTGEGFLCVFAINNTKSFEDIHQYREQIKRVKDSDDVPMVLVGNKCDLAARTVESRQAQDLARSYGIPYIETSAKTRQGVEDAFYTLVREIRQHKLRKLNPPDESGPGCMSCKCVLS

SMILES | Kd [1, 4] [nM] | Kd ([1]; SPR, Single Cycle Kinetics) [nM] | NRAS/KRAS (ratio of KD value for NRAS to KD value for KRAS) [2, 5] | HRAS/KRAS (ratio of KD value for HRAS to KD value for KRAS) [3, 6] | further results
CCCN1C(=O)CN(C)C(=O)CN(C)C(=O)[C@H]([C@@H](C)CC)NC(=O)[C@H](CC(C)C)N(C)C(=O)C[C@@H](C(=O)N(C)C)N(C)C(=O)[C@H](C2CCCC2)N(C)C(=O)C2(CCC2)NC(=O)[C@@H]2CCCN2C(=O)[C@H](CCc2ccc(C(F)(F)F)c(Cl)c2)NC(=O)CN(C)C(=O)[C@@H]1Cc1ccc(C(F)(F)F)cc1 [PP0412] ([NMeL]I[Sar][Sar][NPrPhe(4-CF3)][Sar][hPhe(3-Cl-4-CF3)]P[Ac4c][NMeGly(cPent)][NMeD]-NMe2; lactam N-11) | 0.043 |  |  |  | NRAS/KRAS (ratio of KD value with respect to NRAS to KD value with respect to KRAS) [2, 5]: B (a compound having 3 or more and less than 10 is denoted as B); HRAS/KRAS (ratio of KD value with respect to HRAS to KD value with respect to KRAS) [3, 6]: C (A compound having a KD ratio of 0.1 or more and less than 3 is denoted as C)
CC[C@H](C)[C@@H]1NC(=O)[C@H](CC(C)C)N(C)C(=O)C[C@@H](C(=O)N2CCOCC2)N(C)C(=O)[C@H](C2CCCC2)N(C)C(=O)C2(CCCC2)NC(=O)[C@@H]2CCCN2C(=O)[C@H](CCc2ccc(C(F)(F)F)c(Cl)c2)NC(=O)CN(C)C(=O)[C@H](Cc2ccc(C(F)(F)F)cc2)N(CC2CC2)C(=O)[C@@H]2CCN2C(=O)[C@H](C)N(C)C1=O [PP0108] ([NMeL]I[NMeA][Aze][X27][Sar][hPhe(3-Cl-4-CF3)]P[Ac5c][NMeGly(cPent)][NMeD]-Morpholide; lactam N-11) | 0.2 |  | C (A compound having a KD ratio of 0.1 or more and less than 3 is denoted as C) | C (A compound having a KD ratio of 0.1 or more and less than 3 is denoted as C) | 
CCO[C@@H]1C[C@H]2C(=O)NC3(CCC3)C(=O)N(C)[C@@H](C3CCCC3)C(=O)N(C)[C@H](C(=O)N(C)CC)CC(=O)N(C)[C@@H](CC3CC3)C(=O)N[C@@H]([C@@H](C)CC)C(=O)N(C)CC(=O)N(C)[C@H]3C/C=C\CCN(C3=O)[C@@H](Cc3ccc(C(F)(F)F)cc3)C(=O)N(C)CC(=O)N[C@@H](CCc3cc(F)c(C(F)(F)F)c(F)c3)C(=O)N2C1 [PP1301] |  |  |  |  | Kd [1, 7]: 0.083 nM; NRAS/KRAS (ratio of KD value for NRAS to KD value for KRAS) ([2]; SPR, GDP-bound NRAS wild-type protein vs GDP-bound KRAS wild-type protein, KD ratio class): A (a compound having 10 or more and less than 20 is denoted as A); HRAS/KRAS (ratio of KD value for HRAS to KD value for KRAS) [3, 8]: A (a compound having 10 or more and less than 20 is denoted as A)
CC[C@H](C)[C@@H]1NC(=O)[C@H](CC(C)C)N(C)C(=O)C[C@@H](C(=O)N2CCOCC2)N(C)C(=O)[C@H](C2CCCC2)N(C)C(=O)C2(CCCC2)NC(=O)[C@@H]2CCCN2C(=O)[C@H](CCc2ccc(C(F)(F)F)c(Cl)c2)NC(=O)CN(C)C(=O)[C@H](Cc2ccc(C(F)(F)F)cc2)N(CC2CCCC2)C(=O)[C@@H]2CCN2C(=O)[C@H](C)N(C)C1=O [PP0110] ([NMeL]I[NMeA][Aze][X22][Sar][hPhe(3-Cl-4-CF3)]P[Ac5c][NMeGly(cPent)][NMeD]-Morpholide; lactam N-11) | 4 |  | C (A compound having a KD ratio of 0.1 or more and less than 3 is denoted as C) | B (a compound having 3 or more and less than 10 is denoted as B) | 
CCO[C@@H]1C[C@H]2C(=O)NC3(CCC3)C(=O)N(C)[C@@H](C(CC)CC)C(=O)N3CCC[C@@H]3CC(=O)N(C)[C@@H](CC)C(=O)N[C@@H]([C@@H](C)CC)C(=O)N(C)CC(=O)N(C)[C@H]3C/C=C\CCN(C3=O)[C@@H](Cc3ccc(C(F)(F)F)cc3)C(=O)N(C)CC(=O)N[C@@H](CCc3cc(F)c(C(F)(F)F)c(F)c3)C(=O)N2C1 [PP1607] |  |  |  |  | Kd [1, 7]: 0.57 nM; HRAS/KRAS (ratio of KD value for HRAS to KD value for KRAS) [3, 8]: A (a compound having 10 or more and less than 20 is denoted as A)
CC[C@H](C)[C@@H]1NC(=O)[C@H](CC(C)C)N(C)C(=O)C[C@@H](C(=O)N2CCOCC2)N(C)C(=O)[C@H](C2CCCC2)N(C)C(=O)C2(CCCC2)NC(=O)[C@@H]2CCCN2C(=O)[C@H](CCc2ccc(C(F)(F)F)c(Cl)c2)NC(=O)CN(C)C(=O)[C@H](Cc2ccc(C)cc2)N(CCC(C)C)C(=O)CN(C)C(=O)CN(C)C1=O [PP0098] ([NMeL]I[Sar][Sar][X15][Sar][hPhe(3-Cl-4-CF3)]P[Ac5c][NMeGly(cPent)][NMeD]-Morpholide; lactam N-11) | 0.23 |  |  |  | 
CCCN1C(=O)[C@@H]2CCN2C(=O)[C@@H]2[C@@H](C)CN2C(=O)[C@H]([C@@H](C)CC)NC(=O)[C@H](CC(C)C)N(C)C(=O)C[C@@H](C(=O)N2CCOCC2)N(C)C(=O)[C@H](C2CCCC2)N(C)C(=O)C2(CCCC2)NC(=O)[C@@H]2CCCN2C(=O)[C@H](CCc2ccc(C(F)(F)F)c(Cl)c2)NC(=O)CN(C)C(=O)[C@@H]1Cc1ccc(C(F)(F)F)cc1 [PP0279] ([NMeL]I[Aze(3S-Me)][Aze][NPrPhe(4-CF3)][Sar][hPhe(3-Cl-4-CF3)]P[Ac5c][NMeGly(cPent)][NMeD]-Morpholide; lactam N-11) | 0.36 |  |  |  | 

More lines, main results first:

Kd [1, 4] [nM] | Kd ([1]; SPR, Single Cycle Kinetics) [nM] | SMILES | NRAS/KRAS (ratio of KD value for NRAS to KD value for KRAS) [2, 5] | HRAS/KRAS (ratio of KD value for HRAS to KD value for KRAS) [3, 6] | further results
 | 0.63 | CCO[C@@H]1C[C@H]2C(=O)NC3(CC(C)(C)C3)C(=O)N(C)[C@@H](C(CC)CC)C(=O)N(C)[C@H](C(=O)N3CCCC3)CC(=O)N(C)[C@@H](C)C(=O)N[C@@H]([C@@H](C)CC)C(=O)N(C)CC(=O)N(C)[C@H]3C/C=C\CCN(C3=O)[C@@H](Cc3ccc(C)cc3)C(=O)N(C)CC(=O)N[C@@H](CCc3ccc(C(F)(F)F)c(OC)c3)C(=O)N2C1 [PP2169] | AA (a compound having 20 or more is denoted as AA) | A (a compound having 10 or more and less than 20 is denoted as A) | 
 | 0.15 | C#CCN1CC(=O)N(C)[C@H]2C/C=C\CCN(C2=O)[C@@H](Cc2ccc(C(F)(F)F)cc2)C(=O)N(C)CC(=O)N[C@@H](CCc2ccc(C(F)(F)F)c(OC)c2)C(=O)N2C[C@H](OCC)C[C@H]2C(=O)NC2(CC(C)(C)C2)C(=O)N(C)[C@@H](C2CCCC2)C(=O)N(C)[C@H](C(=O)N(C)C)CC(=O)N(C)[C@@H](CCC)C(=O)N[C@@H]([C@@H](C)CC)C1=O [PP2107] | A (a compound having 10 or more and less than 20 is denoted as A) | A (a compound having 10 or more and less than 20 is denoted as A) | 
0.87 |  | CCO[C@@H]1C[C@H]2C(=O)NC3(CCC3)C(=O)N(C)[C@@H](C3CCCC3)C(=O)N(C)[C@H](C(=O)N(C)C)CC(=O)N(C)[C@@H](CC3CCCC3)C(=O)N[C@@H]([C@@H](C)CC)C(=O)N(C)CC(=O)N(C)[C@H]3C/C=C\CCN(C3=O)[C@@H](Cc3ccc(C)cc3)C(=O)N(C)CC(=O)N[C@@H](CCc3cc(C)c(C(F)F)c(F)c3)C(=O)N2C1 [PP2676] |  |  | NRAS/KRAS (ratio of KD value with respect to GDP-bound NRAS wild-type protein to KD value with respect to KRAS) ([2]; SPR KD ratio NRAS/KRAS, class symbols): A (a compound having 10 or more and less than 20 is denoted as A); HRAS/KRAS (ratio of KD value with respect to GDP-bound HRAS wild-type protein to KD value with respect to KRAS) [3]: A (a compound having 10 or more and less than 20 is denoted as A)
 | 0.17 | CCO[C@@H]1C[C@H]2C(=O)NC3(CC(C)(C)C3)C(=O)N(C)[C@@H](C3CCCC3)C(=O)N(C)[C@H](C(=O)N(C)C)CC(=O)N(C)[C@H]3CCCCCCc4ccc(cc4)C[C@@H](C(=O)N(C)CC(=O)N[C@@H](CCc4ccc(C(F)(F)F)c(OC)c4)C(=O)N2C1)N1CC/C=C\C[C@@H](C1=O)N(C)C(=O)CN(C1CC1)C(=O)[C@H]([C@@H](C)CC)NC3=O [PP3070] |  | B (a compound having 3 or more and less than 10 is denoted as B) | 
1.9 |  | CCC[C@H]1C(=O)N[C@@H]([C@@H](C)CC)C(=O)N(C)CC(=O)N(C)[C@H]2C/C=C\CCN(C2=O)[C@@H](Cc2ccc(C)cc2)C(=O)N(C)CC(=O)N[C@@H](CCc2ccc(Cl)c(OC)c2)C(=O)N2C[C@H](OCC)C[C@H]2C(=O)NC2(CC(C)(C)C2)C(=O)N(C)[C@@H](C(CC)CC)C(=O)N(C)[C@H](C(=O)N(C)C)CC(=O)N1C [PP2791] |  |  | HRAS/KRAS (ratio of KD value with respect to GDP-bound HRAS wild-type protein to KD value with respect to KRAS) [3]: A (a compound having 10 or more and less than 20 is denoted as A)
 | 0.052 | CCO[C@@H]1C[C@H]2C(=O)NC3(CC(C)(C)C3)C(=O)N(C)[C@@H](C(CC)CC)C(=O)N(C)[C@H](C(=O)N(C)C)CC(=O)N(C)[C@H]3CCCC/C=C/c4ccc(cc4)C[C@@H](C(=O)N(C)CC(=O)N[C@@H](CCc4cc(F)c(C(F)(F)F)c(F)c4)C(=O)N2C1)N1CC/C=C\C[C@@H](C1=O)N(C)C(=O)CN(C)C(=O)[C@H]([C@@H](C)CC)NC3=O [PP3044] |  |  | 
